Measurements as given in US7071165B2, “LHRH antagonist peptides” (Indiana University Research and Technology Corporation, priority 1995, dated 2006).

Experiments:
[1] = cited from earlier work
ovulation in female rats [2] = assay: Anti-ovulatory activity (AOA) in vivo assay in rats; design: species or system rat
How it was run: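 Female rats dosed on proestrus day with test peptide dissolved in 0.1% DMSO. Read-out is the number of rats that ovulate; antagonist activity is defined as blocking ovulation in at least 50% of treated rats at a dose of 5 μg per rat.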

rat mast cells = assay: Histamine release assay, rat mast cells
Experimental: The term “histamine-releasing activity”, as used herein, refers to the tendency of a compound to release histamine when administered to a subject. The histamine-releasing activity of a compound can be measured with an in vitro assay (described in more detail, infra). […] Histamine-releasing activity was assayed by the method described in U.S. Pat. No. 4,851,385 to Roeske. Briefly, a suspension of rat mast cells was added to increasing concentrations of an LHRH antagonist peptide and incubated for 15 minutes at 37° C. The buffer contained 25 mM PIPES, pH 7.4, NaCl (119 mM), KCl (5 mM), NaOH (40 mM) glucose (5.6 mM), CaCl2 (1 mM) and 0.1% bovine serum albumin.

ovulation in female rats [3] = assay: Anti-ovulatory activity (AOA) in vivo assay in rats; details: dose 0.5 μg per rat
plasma testosterone [4] = assay: Suppression of plasma testosterone, single subcutaneous injection; format: in vivo, rat; details: adult male rats
Experimental: The ability of an LHRH antagonist of the invention to suppress plasma testosterone levels was examined in adult male rats. In one experiment, a single injection of LHRH antagonist was administered subcutaneously at doses of 300 or 1000 μg/kg. […] Testosterone levels returned to normal by 24 hours after the 300 μg/kg dose, but not until 72 hours after the 1000 μg/kg dose.

plasma testosterone [5] = assay: Suppression of plasma testosterone, continuous subcutaneous infusion via osmotic pump (FIG. 2, FIG. 3); format: in vivo, rat
Experimental: FIG. 2 is a graph depicting plasma testosterone levels (in ng/ml) in adult male rats subcutaneously administered the LHRH antagonist #3827 via an osmotic pump. Doses were either 300 μg/kg/day for two weeks, followed by 15 μg/kg/day for an additional two weeks or 1000 μg/kg/day for two weeks, followed by 5, 15 or 50 μg/kg/day for an additional two weeks.
FIG. 3 is a graph depicting the plasma testosterone levels (in ng/ml) in adult male rats subcutaneously administered the LHRH antagonist #3827 via an osmotic pump. Doses were either 30 μg/kg/day for two weeks, followed by 5 μg/kg/day for an additional two weeks, 100 μg/kg/day for two weeks, followed by 5 μg/kg/day for an additional two weeks. or 300 μg/kg/day for two weeks, followed by 0 or 5 μg/kg/day for an additional two weeks.
In another experiment, continuous subcutaneous infusion of the LHRH antagonist # 3827 was achieved through use of an osmotic pump. Doses of 300 or 1000 μg/kg/day (“High Dose”) were administered subcutaneously for two weeks via Alzet osmotic minipumps in each of five male Sprague-Dawley rats. The animals that received 1000 μg/kg/day were then maintained for an additional two weeks with 5, 15 or 50 μg/kg/day (“Low Dose”) before the pumps were removed completely. The results are shown graphically in FIG. 2.

plasma testosterone [6] = assay: Suppression of plasma testosterone, eight doses every three hours (FIG. 1); format: in vivo, rat; details: adult male rats
Experimental: FIG. 1 is a graph depicting plasma testosterone levels (in ng/ml) in adult male rats administered eight subcutaneous injections of the LHRH antagonist #3827, one injection every three hours, at doses of 1, 10 or 100 μg/kg.
In another experiment, the LHRH antagonist #3827 was administered in eight […] doses of 1, 10 or 100 μg/kg, each every three hours, corresponding respectively to 8, 80 or 800 μg/kg/day. The results are shown graphically in FIG. 1.

[7] = rat mast cells, 15 minutes at 37° C.
[8] = follow up study, FIG. 3, osmotic pump s.c.

## c1ccc2ccccc2c1 [naphthalene]
[1]
  measured log P (octanol/water): 3.45

## Oc1ccc2ccccc2c1 [β-naphthol]
[1]
  measured log P (octanol/water): 2.84

## Ac-D-Nal^1, 4-Cl-D-Phe^2, D-Pal^3, D-Arg^6, Orn(COCH2S^+Me2)^8, D-Ala^10, LHRH.2TFA [Compound 3985]
Ovulation in female rats [2]; dose 1 μg per rat
  AO activity (AOA): rats which ovulate / rats treated: 0/8@1.00
Rat mast cells; footnote a: run with Nal arg reference 0.11
  Histamine release ED50: 4.4 µg/mL
Rat mast cells; footnote b: run with Nal arg reference 0.14
  Histamine release ED50: 3.86 µg/mL
Ovulation in female rats [3]
  AO activity (AOA): rats which ovulate / rats treated: 8/8@0.5

## Ac-D-Nal^1, 4-Cl-D-Phe^2, D-Pal^3, D-Lys(Glc)^6-Lys(iPr)^8, D-Ala^10-LHRH.TFA [Compound 3423A]
Ovulation in female rats [2]; dose 1 μg per rat
  AO activity (AOA): rats which ovulate / rats treated: 2/10@1 μg
Ovulation in female rats [2]; dose 2 μg per rat
  AO activity (AOA): rats which ovulate / rats treated: 0/10@2 μg
Rat mast cells; [7]
  Histamine release ED50: 52 µg/mL
Ovulation in female rats [3]
  AO activity (AOA): rats which ovulate / rats treated: 7/10@0.5 μg

## Ac-D-Nal^1, 4-Cl-D-Phe^2, D-Pal^3, D-Met(S^+CH3)^6, D-Ala^10-LHRH.2TFA [Compound 3967]
Ovulation in female rats [2]; dose 0.25 μg per rat
  AO activity (AOA): rats which ovulate / rats treated: 7/8@0.25
Rat mast cells; footnote e: run with Nal arg reference 0.1
  Histamine release ED50: 0.38 µg/mL
Rat mast cells; footnote f: run with Nal arg reference 0.02
  Histamine release ED50: 0.15 µg/mL
Ovulation in female rats [3]
  AO activity (AOA): rats which ovulate / rats treated: 1/8@0.5

## Ac-D-Nal^1, 4-Cl-D-Phe^2, D-Pal^3, D-Pal(Bzl)^6, Lys(iPr)^8, D-Ala^10-LHRH.TFA [Compound 3429]
Ovulation in female rats [2]; dose 1 μg per rat
  AO activity (AOA): rats which ovulate / rats treated: 0/8@1 μg
Rat mast cells; [7]
  Histamine release ED50: 6.0 µg/mL
Ovulation in female rats [3]
  AO activity (AOA): rats which ovulate / rats treated: 4/8@0.5 μg

## Ac-D-Nal^1, 4-Cl-D-Phe^2, D-Pal^3, N-Me-Tyr^5, D-Asn^6, Lys(iPr)^8, D-Ala^10-LHRH.TFA [Compound 3827]
Ovulation in female rats [2]; dose 1 μg per rat
  AO activity (AOA): rats which ovulate / rats treated: 4/8@1.0
Ovulation in female rats [2]; rat, in vivo
  AO activity (AOA), in words: moderate AO activity
Plasma testosterone [4]; single s.c. 300 μg/kg
  time until testosterone levels returned to normal: ≤ 24 h
Plasma testosterone [4]; single s.c. 1000 μg/kg
  time until testosterone levels returned to normal: 72 h
Plasma testosterone [4]; single s.c. injection 300 or 1000 μg/kg, by 6 hours post-administration
  plasma testosterone: nearly undetectable levels
Plasma testosterone [5]; after High Dose two weeks, Low Dose pumps 5, 15 or 50 μg/kg/day, as low as 5 μg/kg/day
  castration during Low Dose maintenance: remained fully castrated
Plasma testosterone [5]; by maintenance dose
  recovery in plasma testosterone following completion of treatment: dose dependent recovery
Plasma testosterone [5]; [8]
  dose achieving complete suppression of testosterone to castrate levels (as low as): ≤ 30 µg/kg/day
  dose maintaining castrate levels (as low as): ≤ 5 µg/kg/day
Plasma testosterone [5]; male Sprague-Dawley rats, osmotic pump s.c., initial dose 300 or 1000 μg/kg/day
  time to castrate levels of testosterone: ≤ 7 days
Plasma testosterone [5]; osmotic pump s.c.
  castration response during chronic treatment: no apparent “castration response”
Plasma testosterone [5]; rat, in vivo
  recovery of testosterone levels following pump removal: complete within two weeks
Plasma testosterone [6]; eight doses of 1 μg/kg, every three hours (8 μg/kg/day)
  plasma testosterone: significant decrease
Plasma testosterone [6]; eight doses of 10 μg/kg, every three hours (80 μg/kg/day)
  plasma testosterone: Castrate levels
